Results published in PubChem BioAssay AID190 (DTP/NCI, 2004).
Several values for one entry are separate records, joined by “and”; a condition that tells them apart may be missing. Equal values may be shown once. Inconclusive results and toxic doses are left out. The calls were made as follows: active = survival T/C of 150% or more; inactive = T/C below 125% in these data.

Test system: AKR/Lw mice, AKR lymphoma ip, median survival T/C
Assay: NCI In Vivo Anticancer Drug Screen. Data for tumor model Lymphoma AKR (Transplanted) (intraperitoneal) in AKR/Lw mice
Conditions: endpoint: median survival time, higher = longer survival
Experimental: The antitumor activity of compounds was measured in mice bearing transplantable tumors. Survival or tumor size were measured and the results are expressed as the measurement made in the treated group (T) divided by the measurement made in the vehicle treated control group (C). The tumor model used in this assay is Lymphoma AKR (Transplanted) (intraperitoneal) in AKR/Lw mice

[1] = dose: 100.0 mg/kg/injection, schedule: Q01DX001 (ip), vehicle: saline
[2] = dose: 200.0 mg/kg/injection, schedule: Q01DX001 (ip), vehicle: saline
[3] = dose: 100.0 mg/kg/injection, schedule: Q01DX001 (ip), vehicle: Klucel (hydroxypropylcellulose) (HPC)
[4] = dose: 100.0 mg/kg/injection, schedule: Q04DX003 (ip), vehicle: Klucel (hydroxypropylcellulose) (HPC)
[5] = dose: 200.0 mg/kg/injection, schedule: Q01DX001 (ip), vehicle: Klucel (hydroxypropylcellulose) (HPC)
[6] = dose: 200.0 mg/kg/injection, schedule: Q04DX003 (ip), vehicle: Klucel (hydroxypropylcellulose) (HPC)
[7] = dose: 400.0 mg/kg/injection, schedule: Q04DX003 (ip), vehicle: Klucel (hydroxypropylcellulose) (HPC)
[8] = dose: 400.0 mg/kg/injection, schedule: Q01DX001 (ip), vehicle: saline
[9] = dose: 400.0 mg/kg/injection, schedule: Q01DX001 (ip), vehicle: Klucel (hydroxypropylcellulose) (HPC)

Measured: T/C

COc1cc2ccc(C(C)N)cc2cc1OC (stereo unspecified)
inactive: dose: 50.0 mg/kg/injection, schedule: Q04DX003 (ip), vehicle: saline 105 % of control | [1] 98 % of control | dose: 100.0 mg/kg/injection, schedule: Q04DX003 (ip), vehicle: saline 102 % of control | [2] 100 % of control | dose: 200.0 mg/kg/injection, schedule: Q04DX003 (ip), vehicle: saline 95 % of control

COc1cccc2c1C(=O)c1c(O)c3c(c(O)c1C2=O)C[C@@](O)(C(=O)CO)C[C@@H]3OC1CC(N)C(O)C(C)O1 (stereo partly specified)
inactive: dose: 0.12 mg/kg/injection, schedule: Q01DX006 (sc), vehicle: saline 110 % of control | dose: 0.25 mg/kg/injection, schedule: Q01DX006 (ip), vehicle: saline 107 % of control | dose: 0.25 mg/kg/injection, schedule: Q01DX006 (sc), vehicle: saline 97 % of control | dose: 0.5 mg/kg/injection, schedule: Q01DX006 (ip), vehicle: saline 115 % of control | dose: 0.5 mg/kg/injection, schedule: Q01DX006 (sc), vehicle: saline 109 % of control (2×) and 110 % of control | dose: 0.5 mg/kg/injection, schedule: Q04DX003 (sc), vehicle: saline 105 % of control | dose: 0.9 mg/kg/injection, schedule: Q04DX003 (sc), vehicle: saline 105 % of control | dose: 1.0 mg/kg/injection, schedule: Q01DX006 (ip), vehicle: saline 115 % of control | dose: 1.0 mg/kg/injection, schedule: Q01DX006 (sc), vehicle: saline 117 % of control | dose: 1.5 mg/kg/injection, schedule: Q01DX006 (sc), vehicle: saline 110 % of control and 114 % of control (2×) | dose: 2.6 mg/kg/injection, schedule: Q04DX003 (sc), vehicle: saline 97 % of control

c1cc2cc3c(cc2c2c1CC1c4cc5c(cc4CCN1C2)OCO5)OCO3 (stereo unspecified)
inactive: [3] 102 % of control | [4] 103 % of control | [5] 97 % of control | [6] 96 % of control | [7] 92 % of control

CC(C)OC(=O)Oc1cccc2c1C(=O)c1ccccc1C2=O
inactive: [3] 95 % of control | [5] 91 % of control

COc1ccc(C2c3cc4c(c(OC)c3CC3OCC(=O)C32)OCO4)cc1OC (stereo unspecified)
inactive: dose: 25.0 mg/kg/injection, schedule: Q01DX009 (ip), vehicle: Klucel (hydroxypropylcellulose) (HPC) 110 % of control | dose: 50.0 mg/kg/injection, schedule: Q01DX009 (ip), vehicle: Klucel (hydroxypropylcellulose) (HPC) 103 % of control

C[N+]1(C)Cc2ccccc2-c2ccccc2C1
inactive: dose: 50.0 mg/kg/injection, schedule: Q01DX001 (ip), vehicle: saline 94 % of control

O=C(O)O
inactive: [1] 86 % of control | [2] 117 % of control | [8] 95 % of control

COC(=O)C1(C)CSCCC1=O (stereo unspecified)
inactive: [3] 91 % of control | [5] 105 % of control | [9] 96 % of control

c1ccc2c(c1)OCCOCCOc1ccccc1OCCOCCO2
inactive: [1] 107 % of control | [2] 123 % of control | [8] 103 % of control

C1CC2C(CCCC23OCCO3)C2(C1)OCCO2 (stereo unspecified)
inactive: [3] 103 % of control | [1] 106 % of control | [5] 96 % of control | [2] 106 % of control | [9] 93 % of control | [8] 113 % of control

S=P(N1CC1)(N1CC1)N1CC1
inactive: dose: 0.1 mg/kg/injection, schedule: Q01DX009 (ip), vehicle: saline 110 % of control | dose: 0.25 mg/kg/injection, schedule: Q01DX009 (ip), vehicle: saline 87 % of control | dose: 0.5 mg/kg/injection, schedule: Q01DX009 (ip), vehicle: saline 90 % of control | dose: 0.5 mg/kg/injection, schedule: Q04DX003 (ip), vehicle: saline 117 % of control | dose: 1.0 mg/kg/injection, schedule: Q01DX009 (ip), vehicle: saline 108 % of control and 112 % of control and 117 % of control | dose: 1.0 mg/kg/injection, schedule: Q04DX003 (ip), vehicle: saline 120 % of control | dose: 1.2 mg/kg/injection, schedule: Q04DX003 (ip), vehicle: saline 100 % of control | dose: 1.5 mg/kg/injection, schedule: Q01DX001 (ip), vehicle: saline 106 % of control | dose: 2.0 mg/kg/injection, schedule: Q01DX009 (ip), vehicle: saline 111 % of control | dose: 2.5 mg/kg/injection, schedule: Q01DX001 (ip), vehicle: saline 104 % of control | dose: 2.5 mg/kg/injection, schedule: Q04DX003 (ip), vehicle: saline 87 % of control and 112 % of control and 117 % of control | dose: 3.0 mg/kg/injection, schedule: Q01DX001 (ip), vehicle: saline 109 % of control | dose: 3.0 mg/kg/injection, schedule: Q04DX003 (ip), vehicle: saline 122 % of control | dose: 3.75 mg/kg/injection, schedule: Q01DX009 (ip), vehicle: saline 116 % of control | dose: 5.0 mg/kg/injection, schedule: Q01DX001 (ip), vehicle: saline 95 % of control and 100 % of control and 103 % of control | dose: 6.0 mg/kg/injection, schedule: Q01DX001 (ip), vehicle: saline 104 % of control and 106 % of control | dose: 6.2 mg/kg/injection, schedule: Q01DX001 (ip), vehicle: saline 118 % of control | dose: 6.25 mg/kg/injection, schedule: Q01DX001 (ip), vehicle: saline 123 % of control | dose: 7.5 mg/kg/injection, schedule: Q01DX001 (ip), vehicle: saline 102 % of control and 116 % of control | dose: 7.5 mg/kg/injection, schedule: Q01DX009 (ip), vehicle: saline 105 % of control | dose: 10.0 mg/kg/injection, schedule: Q01DX001 (ip), vehicle: saline 111 % of control | dose: 10.0 mg/kg/injection, schedule: Q04DX003 (ip), vehicle: saline 87 % of control | dose: 15.0 mg/kg/injection, schedule: Q01DX009 (ip), vehicle: saline 88 % of control | dose: 16.0 mg/kg/injection, schedule: Q04DX003 (ip), vehicle: saline 97 % of control | dose: 12.0 micrograms/kg/injection, schedule: Q01DX009 (ip), vehicle: saline 111 % of control | dose: 12.5 micrograms/kg/injection, schedule: Q01DX009 (ip), vehicle: saline 102 % of control | dose: 25.0 micrograms/kg/injection, schedule: Q01DX009 (ip), vehicle: saline 100 % of control and 111 % of control | dose: 50.0 micrograms/kg/injection, schedule: Q01DX009 (ip), vehicle: saline 105 % of control | dose: 100.0 micrograms/kg/injection, schedule: Q01DX009 (ip), vehicle: saline 94 % of control and 108 % of control | dose: 200.0 micrograms/kg/injection, schedule: Q01DX009 (ip), vehicle: saline 102 % of control

COc1ccc(Br)cc1/C=N\NS(=O)(=O)c1ccc(C)cc1
inactive: [3] 106 % of control | [4] 106 % of control | [5] 100 % of control | [6] 86 % of control | [9] 100 % of control | [7] 86 % of control

C/C=C(/C)N(C(C)=O)N(C(C)=O)c1ccc([N+](=O)[O-])cc1[N+](=O)[O-]
inactive: [3] 93 % of control | [5] 93 % of control | [6] 93 % of control | [9] 93 % of control
